From PMC7363834, “A STING-based biosensor affords broad cyclic dinucleotide detection within single living eukaryotic cells” (Nature Communications, 2020)

Tests used:
BioSTING = target: T1, BioSTING (Mus musculus, UniProt Q3TBT3); experiment: DRaCALA radioactive nucleotide binding assay of BioSTING; design: species or system murine; conditions: excess (500 µM) unlabeled nucleotide
T1 construct: FRET pair mTFP and mKO2 at L152 and E335, respectively; His tag (N); made in house; host or cells: E. coli Rosetta (DE3)pLysS
T1 sequence (Q3TBT3 152-335): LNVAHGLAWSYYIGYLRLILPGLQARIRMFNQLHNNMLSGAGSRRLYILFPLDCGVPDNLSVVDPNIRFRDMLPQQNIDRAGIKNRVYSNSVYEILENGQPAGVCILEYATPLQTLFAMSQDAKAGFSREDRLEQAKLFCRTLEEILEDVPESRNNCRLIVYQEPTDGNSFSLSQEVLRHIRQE

STING-CTD (mSTING-CTD) = target: T2, STING-CTD (mSTING-CTD) (Mus musculus, UniProt Q3TBT3); experiment: DRaCALA radioactive nucleotide binding assay of STING-CTD; design: species or system murine; conditions: excess (500 µM) unlabeled nucleotide
T2 construct: made in house; host or cells: E. coli Rosetta (DE3)pLysS; plasmid pET28-mSTING-CTD, gift from Russell Vance
T2 sequence (Q3TBT3 134-378 limits assumed): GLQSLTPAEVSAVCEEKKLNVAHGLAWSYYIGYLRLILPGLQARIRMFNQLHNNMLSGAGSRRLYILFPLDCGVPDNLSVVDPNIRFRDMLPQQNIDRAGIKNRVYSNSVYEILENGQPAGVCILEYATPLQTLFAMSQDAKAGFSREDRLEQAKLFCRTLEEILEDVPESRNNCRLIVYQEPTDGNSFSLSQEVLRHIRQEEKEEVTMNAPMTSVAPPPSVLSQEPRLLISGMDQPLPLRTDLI

`Nc1ncnc2c1ncn2[C@@H]1O[C@H](COP(=O)(O)OP(=O)(O)OP(=O)(O)O)[C@@H](O)[C@H]1O` [ATP] was tested, and the “competition of bound [32P] 2ʼ3ʼ-cGAMP by unlabeled nucleotide” value (shortened to “competition of bound [32P] 2ʼ3ʼ-cGAMP”) (BioSTING) was “not” and the “competition of bound [32P] 2ʼ3ʼ-cGAMP” value (STING-CTD (mSTING-CTD)) was “not”.
`Nc1nc2c(ncn2[C@@H]2O[C@H](COP(=O)(O)OP(=O)(O)OP(=O)(O)O)[C@@H](O)[C@H]2O)c(=O)[nH]1` [GTP] was tested, and the “competition of bound [32P] 2ʼ3ʼ-cGAMP” value (BioSTING) was “not” and the “competition of bound [32P] 2ʼ3ʼ-cGAMP” value (STING-CTD (mSTING-CTD)) was “not”.
In the case of `Nc1nc2c(ncn2[C@@H]2O[C@@H]3COP(=O)(O)O[C@H]3[C@H]2O)c(=O)[nH]1` [cGMP], the “competition of bound [32P] 2ʼ3ʼ-cGAMP” value (BioSTING) is reported as “not” and the “competition of bound [32P] 2ʼ3ʼ-cGAMP” value (STING-CTD (mSTING-CTD)) is reported as “not”.
